From patent publication US10899988B1, “Octane hyperboosting in fuel blends” (National Technology & Engineering Solutions of Sandia, LLC, priority 2018, dated 2021)

Experiments:
[1] = Co-optima fuel property database, cited from earlier work; for Water Solubility: measured at 25° C.
[2] = ASTM D3703 test for hydroperoxides (peroxide number); type: physicochemical; details: silica column processed sample; testing range 0-50 mg/kg
Method: Potential polar contaminants, such as peroxides and hydrates, were removed from the neat prenol sample using a silica column following the protocol outlined by Mueller et al. (see, e.g., Mueller C J et al., “Diesel surrogate fuels for engine testing and chemical-kinetic modeling: compositions and properties,” Energy Fuels 2016; 30:1445-61). RON testing of this sample was conducted to confirm that these contaminants were not affecting the RON measurement. The sample containers were stored at 85% capacity and sealed with parafilm to limit peroxide formation after the silica column treatment; testing was performed within 10 days of the treatment. The peroxide number of the silica column treated sample (sample processed as described above) was tested by the ASTM […] method at SwRI. This method quantified the concentration hydroperoxides in a sample within the range of 0-50 mg/kg (ppm).

Row | hydroperoxides (ASTM D3703) [2] | Compound | DH Vap [1] | Energy Density [1] | Water Solubility [1]
1 |  | O=C1CCCC1 [Cyclopentanone] | 504 kJ/kg | 30.2 mJ/L | 61 mg/mL
2 |  | CCO [Ethanol] | 919 kJ/kg | 20.2 mJ/L | 
3 |  | CC(C)CO [Isobutanol] | 685 kJ/kg | 26.6 mJ/L | 
4 |  | CC(C)O [Isopropanol] | 744 kJ/kg | 24.1 mJ/L | 
5 | non-detect | CC(C)=CCO [Prenol, 3-methyl-2-buten-1-ol] | 512 kJ/kg |  | 41 mg/mL
6 |  | n-propanol | 789 kJ/kg | 24.7 mJ/L | 
